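Tested at 5 concentrations; 48 h exposure; 96-well plates; endpoints linearly interpolated, else capped at highest concentration. GI50 is the concentration that inhibits growth by half. TGI marks complete inhibition of growth.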
Experiments:
Assay in all cases: NCI anticancer screen, dose series, 48 h
[1] = test system: OVCAR-3 ovarian
[2] = test system: SK-MEL-5 melanoma
[3] = test system: SK-MEL-2 melanoma
[4] = test system: MCF7 breast
[5] = test system: SF-539 CNS
[6] = test system: SK-OV-3 ovarian
[7] = test system: MDA-MB-231 breast
[8] = test system: IGROV1 ovarian
[9] = test system: PC-3 prostate
[10] = test system: KM12 colon

COc1ccc2nc(-c3ccccc3)cc(Nc3ccc(/C(C)=N/O)cc3)c2c1
GI50 [1]: 2.87 µM
TGI [1]: > 100 µM
GI50 [2]: 2.62 µM
TGI [2]: 7.57 µM
GI50 [3]: 88.4 µM
TGI [3]: > 100 µM
GI50 [4]: 3.35 µM
TGI [4]: > 19.7 µM
GI50 [5]: 0.35 µM
TGI [5]: 3.05 µM
GI50 [6]: 2.15 µM
TGI [6]: 5.22 µM
GI50 [7]: 0.733 µM
TGI [7]: 2.07 µM
GI50 [8]: 13.4 µM
TGI [8]: > 22 µM
GI50 [9]: 6.36 µM
TGI [9]: > 64.8 µM
GI50 [10]: 3.74 µM
TGI [10]: > 100 µM

Clc1ccccc1-c1nc2ccccc2[nH]1
GI50 [1]: > 100 µM
TGI [1]: > 100 µM
GI50 [2]: > 100 µM
TGI [2]: > 100 µM
GI50 [3]: > 100 µM
TGI [3]: > 100 µM
GI50 [4]: > 100 µM
TGI [4]: > 100 µM
GI50 [5]: > 100 µM
TGI [5]: > 100 µM
GI50 [6]: > 100 µM
TGI [6]: > 100 µM
GI50 [7]: > 100 µM
TGI [7]: > 100 µM
GI50 [8]: 91.7 µM
TGI [8]: > 100 µM
GI50 [9]: > 100 µM
TGI [9]: > 100 µM
GI50 [10]: 85.2 µM
TGI [10]: > 100 µM

O=C1OCC2=C1C(c1cccc(F)c1)c1cc3c(cc1N2CCO)OCCO3 (stereo not drawn)
GI50 [1]: 0.142 µM
GI50 [2]: 0.162 µM
GI50 [3]: 0.276 µM
TGI [3]: > 50 µM
GI50 [4]: 0.13 µM
TGI [4]: > 50 µM
GI50 [5]: 0.141 µM
TGI [5]: 0.831 µM
GI50 [6]: 0.26 µM
TGI [6]: > 50 µM
GI50 [7]: 0.32 µM
TGI [7]: > 20.3 µM
GI50 [8]: 0.333 µM
TGI [8]: > 50 µM
GI50 [9]: 0.195 µM
TGI [9]: > 50 µM
GI50 [10]: 0.172 µM
TGI [10]: > 50 µM

COC(=O)Nc1nc2c(OC)c(OC)c(OC)cc2[nH]1
GI50 [1]: 15.6 µM
TGI [1]: 49.1 µM
GI50 [2]: 9.34 µM
TGI [2]: > 100 µM
GI50 [3]: 15.1 µM
TGI [3]: > 91.6 µM
GI50 [4]: 9.38 µM
TGI [4]: > 100 µM
GI50 [5]: 18.6 µM
TGI [5]: 73.3 µM
GI50 [6]: 30.8 µM
TGI [6]: > 100 µM
GI50 [7]: 18.7 µM
TGI [7]: > 100 µM
GI50 [8]: 22.1 µM
TGI [8]: > 100 µM
GI50 [9]: 24.2 µM
TGI [9]: > 100 µM
GI50 [10]: 5.48 µM
TGI [10]: > 100 µM

O=C1CC(c2ccccc2)Cc2nc3ccc(Cl)cc3cc21 (stereo not drawn)
GI50 [1]: 0.313 µM
TGI [1]: 1.16 µM
GI50 [2]: 0.309 µM
TGI [2]: 2.37 µM
GI50 [3]: 0.207 µM
TGI [3]: > 100 µM
GI50 [4]: 2.42 µM
TGI [4]: > 100 µM
GI50 [5]: 0.211 µM
TGI [5]: 0.642 µM
GI50 [6]: 0.753 µM
TGI [6]: > 100 µM
GI50 [7]: 0.538 µM
TGI [7]: > 100 µM
GI50 [8]: 0.397 µM
TGI [8]: > 100 µM
GI50 [9]: 0.293 µM
TGI [9]: > 100 µM
GI50 [10]: 0.342 µM
TGI [10]: 22.7 µM

COc1ccc(N2CCN(CC(=O)N3CCN(c4nnc(-c5ccccc5)c(-c5ccccc5)n4)CC3)CC2)cc1
GI50 [1]: 4.92 µM
TGI [1]: > 93.4 µM
GI50 [2]: 2.32 µM
TGI [2]: 6.63 µM
GI50 [3]: 51.3 µM
TGI [3]: > 100 µM
GI50 [4]: 4.44 µM
TGI [4]: 34.2 µM
GI50 [5]: 7.71 µM
TGI [5]: > 81.9 µM
GI50 [6]: > 27.9 µM
TGI [6]: > 100 µM
GI50 [7]: 65.3 µM
TGI [7]: > 100 µM
GI50 [8]: 43.2 µM
TGI [8]: > 100 µM
GI50 [9]: 5.5 µM
TGI [9]: > 100 µM
GI50 [10]: 5.67 µM
TGI [10]: > 100 µM

O=C(Cc1ccccc1)Nc1nnc(CCSCCc2nnc(NC(=O)Cc3ccccc3)s2)s1
GI50 [1]: 6.16 µM
TGI [1]: 49.2 µM
GI50 [2]: 58 µM
TGI [2]: > 100 µM
GI50 [3]: 16.5 µM
TGI [3]: > 100 µM
GI50 [4]: 32.6 µM
TGI [4]: > 100 µM
GI50 [5]: 22.8 µM
TGI [5]: > 100 µM
GI50 [6]: 18.7 µM
TGI [6]: 71.3 µM
GI50 [7]: 6.51 µM
TGI [7]: 25.7 µM
GI50 [8]: 25.9 µM
TGI [8]: > 100 µM
GI50 [9]: 4.55 µM
TGI [9]: > 100 µM
GI50 [10]: 4.61 µM
TGI [10]: > 100 µM

CC(=O)NNC(=O)c1nn(-c2ccc(Cl)cc2)cc1OC(C)=O
GI50 [1]: 18.8 µM
TGI [1]: > 100 µM
GI50 [2]: 10.4 µM
TGI [2]: > 69.1 µM
GI50 [3]: > 64.7 µM
TGI [3]: > 100 µM
GI50 [4]: > 37 µM
TGI [4]: > 78.4 µM
GI50 [5]: 21.9 µM
TGI [5]: > 100 µM
GI50 [6]: 49.5 µM
TGI [6]: > 100 µM
GI50 [7]: 23.7 µM
TGI [7]: > 87.4 µM
GI50 [8]: 21.5 µM
TGI [8]: > 100 µM
GI50 [9]: 5.07 µM
TGI [9]: > 25 µM
GI50 [10]: 43.7 µM
TGI [10]: > 100 µM

OC(COc1ccc(Cl)cc1Cl)CN1CCCC1 (stereo not drawn)
TGI [1]: > 100 µM
TGI [2]: > 100 µM
TGI [3]: > 100 µM
TGI [4]: > 100 µM
TGI [5]: > 100 µM
TGI [6]: > 100 µM
TGI [7]: > 100 µM
TGI [8]: > 100 µM
TGI [9]: > 100 µM
TGI [10]: > 100 µM

COc1ccc(C(=O)Nc2ncc(Cc3ccc(F)cc3)s2)cc1
GI50 [1]: 0.0346 µM
TGI [1]: 1.32 µM
GI50 [2]: 0.0422 µM
TGI [2]: 2.26 µM
GI50 [3]: 3.95 µM
TGI [3]: > 100 µM
GI50 [4]: 0.0385 µM
TGI [4]: > 100 µM
GI50 [5]: 0.0448 µM
TGI [5]: 0.414 µM
GI50 [6]: 0.277 µM
TGI [6]: > 100 µM
GI50 [7]: 0.2 µM
TGI [7]: 76.6 µM
GI50 [8]: 0.0957 µM
TGI [8]: 97.7 µM
GI50 [9]: 0.0513 µM
TGI [9]: > 100 µM
GI50 [10]: 0.0408 µM
TGI [10]: 6.2 µM

NC(=O)Nc1ccc2ncnc(Nc3ccc(Cl)cc3)c2c1
GI50 [1]: 10.4 µM
TGI [1]: > 83.4 µM
GI50 [2]: 13.6 µM
TGI [2]: 30.8 µM
GI50 [3]: 18.5 µM
TGI [3]: 46.7 µM
GI50 [4]: 26.9 µM
TGI [4]: > 100 µM
GI50 [5]: 30.7 µM
TGI [5]: > 100 µM
GI50 [6]: 4.5 µM
TGI [6]: 34.1 µM
GI50 [7]: 13.7 µM
TGI [7]: > 61.4 µM
GI50 [8]: 9.06 µM
TGI [8]: 34.3 µM
GI50 [9]: 19.4 µM
TGI [9]: > 96.2 µM
GI50 [10]: 33.4 µM
TGI [10]: > 100 µM

— PubChem BioAssay (NCI)
